The source made the active and inactive calls.
Experiments:
[1] = target: T1, GABA-A receptor; alpha-1/beta-3/gamma-2 (Homo sapiens, UniProt P14867+P18507+P28472); assay: Positive allosteric modulation of GABA-A alpha1beta3gamma2S receptor (unknown origin) expressed in Xenopus laevis oocytes assessed as increase in GABA-induced chloride current after 15 mins at -70 mV holding potential by two-microelectrode voltage clamp method; type: cell-based
T1 sequence (P14867 whole entry): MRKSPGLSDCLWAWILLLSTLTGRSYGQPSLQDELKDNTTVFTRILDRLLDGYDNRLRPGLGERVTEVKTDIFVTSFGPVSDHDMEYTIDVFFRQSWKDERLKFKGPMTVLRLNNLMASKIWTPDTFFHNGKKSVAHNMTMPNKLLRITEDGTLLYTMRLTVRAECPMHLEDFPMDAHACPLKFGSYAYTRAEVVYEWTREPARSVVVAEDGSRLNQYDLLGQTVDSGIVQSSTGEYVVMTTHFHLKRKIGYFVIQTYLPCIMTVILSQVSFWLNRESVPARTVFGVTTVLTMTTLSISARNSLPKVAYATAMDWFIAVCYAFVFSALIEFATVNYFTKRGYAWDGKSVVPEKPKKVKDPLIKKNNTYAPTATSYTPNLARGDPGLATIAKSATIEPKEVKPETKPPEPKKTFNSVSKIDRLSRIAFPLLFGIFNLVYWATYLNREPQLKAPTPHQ
T1 sequence (P18507 whole entry): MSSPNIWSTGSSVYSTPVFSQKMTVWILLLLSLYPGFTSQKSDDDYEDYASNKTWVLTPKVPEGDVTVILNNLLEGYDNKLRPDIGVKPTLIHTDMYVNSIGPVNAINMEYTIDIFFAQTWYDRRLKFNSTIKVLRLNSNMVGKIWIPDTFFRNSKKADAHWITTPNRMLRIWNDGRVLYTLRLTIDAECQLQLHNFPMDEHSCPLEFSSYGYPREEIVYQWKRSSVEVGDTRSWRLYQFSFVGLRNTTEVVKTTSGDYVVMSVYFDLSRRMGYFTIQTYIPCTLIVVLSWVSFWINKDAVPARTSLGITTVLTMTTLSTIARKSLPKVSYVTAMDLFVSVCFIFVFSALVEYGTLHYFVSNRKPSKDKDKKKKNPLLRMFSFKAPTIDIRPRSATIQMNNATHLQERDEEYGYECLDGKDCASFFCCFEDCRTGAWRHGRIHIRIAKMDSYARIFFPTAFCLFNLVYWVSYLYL
T1 sequence (P28472 whole entry): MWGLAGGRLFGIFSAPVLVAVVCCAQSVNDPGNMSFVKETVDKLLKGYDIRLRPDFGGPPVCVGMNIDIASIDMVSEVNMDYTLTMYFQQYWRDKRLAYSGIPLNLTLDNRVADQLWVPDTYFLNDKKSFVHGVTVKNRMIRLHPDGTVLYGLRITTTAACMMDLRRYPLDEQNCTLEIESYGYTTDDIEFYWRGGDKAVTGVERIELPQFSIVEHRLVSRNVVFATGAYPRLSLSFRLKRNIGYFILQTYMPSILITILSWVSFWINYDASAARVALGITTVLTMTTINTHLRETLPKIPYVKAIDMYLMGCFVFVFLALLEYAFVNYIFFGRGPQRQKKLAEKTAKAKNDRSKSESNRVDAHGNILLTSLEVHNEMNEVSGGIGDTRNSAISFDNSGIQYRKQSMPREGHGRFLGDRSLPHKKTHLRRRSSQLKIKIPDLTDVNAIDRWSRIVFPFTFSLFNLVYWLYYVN

[2] = target: T2, GABA-A receptor; alpha-1/beta-2/gamma-2 (Homo sapiens, UniProt P14867+P18507+P47870); assay: Positive allosteric modulation of GABA-A alpha1beta2gamma2S receptor (unknown origin) expressed in Xenopus laevis oocytes assessed as increase in GABA-induced chloride current after 15 mins at -70 mV holding potential by two-microelectrode voltage clamp method; type: cell-based
T2 sequence (P14867 whole entry): T1 sequence (P14867 whole entry)
T2 sequence (P47870 whole entry): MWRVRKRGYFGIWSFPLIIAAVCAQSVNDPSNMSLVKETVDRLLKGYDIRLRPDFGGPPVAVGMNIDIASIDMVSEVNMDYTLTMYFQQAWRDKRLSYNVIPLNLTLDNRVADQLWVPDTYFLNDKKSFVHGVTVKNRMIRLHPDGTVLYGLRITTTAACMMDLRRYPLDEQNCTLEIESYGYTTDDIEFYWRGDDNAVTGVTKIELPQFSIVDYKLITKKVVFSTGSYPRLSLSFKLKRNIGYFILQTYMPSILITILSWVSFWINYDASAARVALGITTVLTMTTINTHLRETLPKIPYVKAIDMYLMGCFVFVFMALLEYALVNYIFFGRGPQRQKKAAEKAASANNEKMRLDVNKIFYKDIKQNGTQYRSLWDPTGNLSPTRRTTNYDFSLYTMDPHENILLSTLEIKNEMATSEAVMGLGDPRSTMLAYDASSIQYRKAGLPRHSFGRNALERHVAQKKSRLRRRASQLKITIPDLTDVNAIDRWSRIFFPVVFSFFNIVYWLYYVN
T2 sequence (P18507 whole entry): T1 sequence (P18507 whole entry)

[3] = target: T3, Neuronal acetylcholine receptor; alpha4/beta2 (Homo sapiens) (UniProt P17787+P43681); assay: Negative allosteric modulation of alpha4beta2 nAChR (unknown origin) expressed in Xenopus laevis oocytes assessed as decrease in acetylcholine-induced channel current at 100 uM at -70 mV holding potential by two-microelectrode voltage clamp method relative to control; type: cell-based
[4] = target: T3, Neuronal acetylcholine receptor; alpha4/beta2 (Homo sapiens); assay: Positive allosteric modulation of alpha4beta2 nAChR (unknown origin) expressed in Xenopus laevis oocytes assessed as increase in acetylcholine-induced channel current at 10 to 100 uM at -70 mV holding potential by two-microelectrode voltage clamp method; type: cell-based
[5] = target: GABA-A receptor; alpha-1/beta-3/gamma-2 (Homo sapiens, UniProt P14867+P18507+P28472, N265S); assay: Positive allosteric modulation of GABA-A alpha1beta3(N265S)gamma2S mutant receptor (unknown origin) expressed in Xenopus laevis oocytes assessed as increase in GABA-induced chloride current after 15 mins at -70 mV holding potential by two-microelectrode voltage clamp method; type: cell-based
[6] = system: Mus musculus; assay: Anticonvulsive activity in C57BL/6N mouse assessed as protection against 52.6 +/- 2.1 mg/kg pentylenetetrazole-induced seizures by measuring elevation in seizure threshold at 0.3 mg/kg, ip pretreated for 30 mins followed by pentylenetetrazole tail-vein infusion; type: functional, organism-based
[7] = target: T4, GABA A receptor alpha-1/beta-1/gamma-2 (Homo sapiens, UniProt P14867+P18505+P18507); assay: Positive allosteric modulation of GABA-A alpha1beta1gamma2S receptor (unknown origin) expressed in Xenopus laevis oocytes assessed as increase in GABA-induced chloride current at 300 uM after 15 mins at -70 mV holding potential by two-microelectrode voltage clamp method relative to control; type: cell-based; conditions: 0.25 h
T4 sequence (P14867 whole entry): T1 sequence (P14867 whole entry)
T4 sequence (P18507 whole entry): T1 sequence (P18507 whole entry)
T4 sequence (P18505 whole entry): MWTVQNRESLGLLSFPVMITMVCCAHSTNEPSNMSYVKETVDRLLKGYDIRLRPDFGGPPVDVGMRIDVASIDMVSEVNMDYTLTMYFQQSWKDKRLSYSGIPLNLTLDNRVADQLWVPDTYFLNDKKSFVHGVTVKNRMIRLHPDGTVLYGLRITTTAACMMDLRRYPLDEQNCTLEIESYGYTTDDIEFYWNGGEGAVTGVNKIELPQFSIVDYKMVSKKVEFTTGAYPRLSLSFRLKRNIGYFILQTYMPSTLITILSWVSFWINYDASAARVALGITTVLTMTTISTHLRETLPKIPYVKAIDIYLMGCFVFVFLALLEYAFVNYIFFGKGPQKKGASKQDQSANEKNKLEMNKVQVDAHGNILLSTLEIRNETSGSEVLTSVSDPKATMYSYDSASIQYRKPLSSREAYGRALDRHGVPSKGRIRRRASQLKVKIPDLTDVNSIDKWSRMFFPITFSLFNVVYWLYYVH

[8] = target: T5, GABA-A receptor; anion channel (Rattus norvegicus) (UniProt O09028+P15431+P18506+P18508+P19969+P20236+P23574+P23576+P28471+P28473+P30191+P62813+P63079+P63138+Q91ZM7+Q9ES14); assay: Positive allosteric modulation of GABA-A receptor in Sprague-Dawley rat primary hippocampal neurons assessed as increase in channel-mediated tonic current at 10 uM for 300 secs at -70 mV holding potential by patch-clamp method; type: protein-complex assay
[9] = system: Mus musculus; assay: Anticonvulsive activity in C57BL/6N mouse assessed as protection against 39.5 +/- 0.8 mg/kg pentylenetetrazole-induced seizures by measuring elevation in seizure threshold at 0.1 to 0.3 mg/kg, ip pretreated for 30 mins followed by pentylenetetrazole tail-vein infusion; type: functional, organism-based
[10] = target: Glutamate [NMDA] receptor (Homo sapiens) (UniProt Q05586+Q12879+Q13224+O15399+O60391+Q14957+Q8TCU5); assay: Positive allosteric modulation of NMDA receptor (unknown origin) expressed in Xenopus laevis oocytes assessed as increase in NMDA-induced channel current at 10 to 100 uM at -70 mV holding potential by two-microelectrode voltage clamp method; type: cell-based
[11] = target: GABA-A receptor; alpha-1/beta-3/gamma-2 (Homo sapiens, UniProt P14867+P18507+P28472, F289S); assay: Positive allosteric modulation of GABA-A alpha1beta3(F289S)gamma2S mutant receptor (unknown origin) expressed in Xenopus laevis oocytes assessed as increase in GABA-induced chloride current after 15 mins at -70 mV holding potential by two-microelectrode voltage clamp method; type: cell-based
[12] = target: T5, GABA-A receptor; anion channel (Rattus norvegicus); assay: Positive allosteric modulation of GABA-A receptor in Sprague-Dawley rat primary hippocampal neurons assessed as channel-mediated tonic current at 10 uM pretreated for 300 secs followed by BMI addition for 10 secs at -70 mV holding potential by patch-clamp method; type: protein-complex assay
[13] = target: GABA A receptor alpha-1/beta-1/gamma-2 (Homo sapiens, UniProt P14867+P18505+P18507, S290N); assay: Positive allosteric modulation of GABA-A alpha1beta1(S290N)gamma2S mutant receptor (unknown origin) expressed in Xenopus laevis oocytes assessed as increase in GABA-induced chloride current after 15 mins at -70 mV holding potential by two-microelectrode voltage clamp method; type: cell-based
[14] = target: Metabotropic glutamate receptor 2 (Homo sapiens) (UniProt Q14416); assay: Positive allosteric modulation of mGluR2 (unknown origin) expressed in Xenopus laevis oocytes assessed as increase in glutamate-induced channel current at 10 to 100 uM at -70 mV holding potential by two-microelectrode voltage clamp method; type: cell-based
[15] = target: T5, GABA-A receptor; anion channel (Rattus norvegicus); assay: Positive allosteric modulation of GABA-A receptor in Sprague-Dawley rat primary hippocampal neurons assessed as prolongation of miniature inhibitory postsynaptic current decay time at 10 uM for 300 secs at -70 mV holding potential by patch-clamp method; type: protein-complex assay; set-up: scale not given: the % may be the effect or the level left
[16] = system: Oocyte; assay: Induction of current in Xenopus laevis oocytes at 10 to 100 uM after 5 mins by two-microelectrode voltage clamp method; type: cell-based
[17] = target: T5, GABA-A receptor; anion channel (Rattus norvegicus); assay: Positive allosteric modulation of GABA-A receptor in Sprague-Dawley rat primary hippocampal neurons assessed as miniature inhibitory postsynaptic current mean frequency at 10 uM for 300 secs at -70 mV holding potential by patch-clamp method; type: protein-complex assay; set-up: scale not given: the % may be the effect or the level left
[18] = target: T4, GABA A receptor alpha-1/beta-1/gamma-2; assay: Positive allosteric modulation of GABA-A alpha1beta1gamma2S receptor (unknown origin) expressed in Xenopus laevis oocytes assessed as increase in GABA-induced chloride current after 15 mins at -70 mV holding potential by two-microelectrode voltage clamp method; type: cell-based
[19] = target: T5, GABA-A receptor; anion channel (Rattus norvegicus); assay: Positive allosteric modulation of GABA-A receptor in Sprague-Dawley rat primary hippocampal neurons assessed as miniature inhibitory postsynaptic current amplitude at 10 uM for 300 secs at -70 mV holding potential by patch-clamp method; type: protein-complex assay; set-up: scale not given: the % may be the effect or the level left
[20] = target: Transient receptor potential cation channel subfamily V member 1 (Homo sapiens) (UniProt Q8NER1); assay: Agonist activity at TRPV1 receptor (unknown origin) expressed in Xenopus laevis oocytes assessed as increase in channel current at 10 to 100 uM at -70 mV holding potential by two-microelectrode voltage clamp method; type: cell-based
Sequence of Transient receptor potential cation channel subfamily V member 1 (Homo sapiens) (Q8NER1 whole entry): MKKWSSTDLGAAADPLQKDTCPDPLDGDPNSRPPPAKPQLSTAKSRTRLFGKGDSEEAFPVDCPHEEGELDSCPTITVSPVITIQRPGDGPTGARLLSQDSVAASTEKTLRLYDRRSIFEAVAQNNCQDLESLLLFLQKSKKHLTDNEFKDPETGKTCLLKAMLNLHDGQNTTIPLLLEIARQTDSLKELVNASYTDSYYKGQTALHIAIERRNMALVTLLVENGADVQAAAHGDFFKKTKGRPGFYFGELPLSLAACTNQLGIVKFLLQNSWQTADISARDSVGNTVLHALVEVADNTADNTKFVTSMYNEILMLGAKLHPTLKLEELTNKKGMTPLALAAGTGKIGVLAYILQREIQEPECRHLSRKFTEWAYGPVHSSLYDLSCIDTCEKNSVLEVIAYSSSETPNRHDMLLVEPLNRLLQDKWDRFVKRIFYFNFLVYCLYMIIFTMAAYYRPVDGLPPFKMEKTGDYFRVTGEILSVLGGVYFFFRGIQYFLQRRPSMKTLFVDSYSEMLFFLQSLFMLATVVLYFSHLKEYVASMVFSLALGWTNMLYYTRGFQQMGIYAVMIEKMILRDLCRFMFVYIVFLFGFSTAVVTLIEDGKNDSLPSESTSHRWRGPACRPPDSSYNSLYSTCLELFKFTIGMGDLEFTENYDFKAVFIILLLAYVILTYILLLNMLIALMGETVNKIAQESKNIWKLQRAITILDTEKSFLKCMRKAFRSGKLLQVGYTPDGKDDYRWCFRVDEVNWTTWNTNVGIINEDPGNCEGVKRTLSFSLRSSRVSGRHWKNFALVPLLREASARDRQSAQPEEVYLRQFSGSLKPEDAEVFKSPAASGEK

Sequence of Metabotropic glutamate receptor 2 (Homo sapiens) (Q14416 19-872 limits assumed): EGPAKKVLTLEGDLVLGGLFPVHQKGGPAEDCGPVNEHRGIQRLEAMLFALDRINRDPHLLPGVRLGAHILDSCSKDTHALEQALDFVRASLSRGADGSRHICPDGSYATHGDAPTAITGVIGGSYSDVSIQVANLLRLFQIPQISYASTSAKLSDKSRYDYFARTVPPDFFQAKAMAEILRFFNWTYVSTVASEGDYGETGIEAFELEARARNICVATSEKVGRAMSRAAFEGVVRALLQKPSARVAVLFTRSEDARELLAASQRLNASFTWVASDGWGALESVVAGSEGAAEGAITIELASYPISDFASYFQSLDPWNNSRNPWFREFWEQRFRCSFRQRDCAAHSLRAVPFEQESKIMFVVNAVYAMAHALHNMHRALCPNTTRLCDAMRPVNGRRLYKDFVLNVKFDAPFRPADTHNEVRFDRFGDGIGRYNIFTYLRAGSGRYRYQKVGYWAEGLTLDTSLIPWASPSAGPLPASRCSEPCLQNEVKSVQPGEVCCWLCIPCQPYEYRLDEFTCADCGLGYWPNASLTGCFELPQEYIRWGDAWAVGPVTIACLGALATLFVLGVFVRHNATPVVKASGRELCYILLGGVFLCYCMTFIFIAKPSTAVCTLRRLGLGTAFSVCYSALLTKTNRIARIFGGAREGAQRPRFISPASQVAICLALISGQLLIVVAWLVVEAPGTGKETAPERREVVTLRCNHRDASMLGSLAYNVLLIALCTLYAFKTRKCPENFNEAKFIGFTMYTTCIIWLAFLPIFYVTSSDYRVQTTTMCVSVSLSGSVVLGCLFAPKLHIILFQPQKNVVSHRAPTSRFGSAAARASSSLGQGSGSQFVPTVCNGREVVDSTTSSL

SMILES: CC(=C(C#N)C(N)=O)c1ccc(Cl)cc1Cl (mixture of isomers)
- EC50 [1]: 67 µM

SMILES: C/C(=C(\C#N)C(N)=O)c1ccc(Cl)cc1Cl
- EC50 [1]: 44 µM
- EC50 [2]: 40 µM

SMILES: C/C(=C/C#N)c1ccc(Cl)cc1Cl
- inhibition [3]: 70%
- Activity [4]: inactive
- EC50 [5]: 103 µM
- Activity [6]: Active
- Emax at 300 µM [7]: 883%
- Activity [8]: Active
- EC50 [1]: 13 µM
- Activity [9]: Active
- EC50 [2]: 15 µM
- Activity [10]: inactive
- EC50 [11]: 171 µM
- Activity [12]: -38 pA
- EC50 [13]: 10 µM
- Activity [14]: inactive
- Activity [15]: 213%
- Activity [16]: Non-Toxic
- Activity [17]: 78%
- EC50 [18]: 148 µM
- Activity [19]: 97%
- Activity [20]: inactive

SMILES: C/C(=C\C#N)c1ccc(Cl)cc1Cl
- EC50 [1]: 100 µM

SMILES: CC(CC#N)c1ccc(Cl)cc1Cl (racemic)
- EC50 [1]: 120 µM

Source: ChEMBL document CHEMBL4308853, “Design, Synthesis, and Pharmacological Evaluation of Novel β2/3 Subunit-Selective γ-Aminobutyric Acid Type A (GABAA) Receptor Modulators” (J Med Chem, 2018)
